Laboratory results reported in publication PMC6985102 (Scientific Reports, 2020).

How the values were obtained:
[1] = biological target: T1, BSA (Bos taurus, UniProt P02769); assay: Extraction efficiency of parent SeC after deproteinization (BSA, NEM-pretreated BSA)
Method: The spiked matrix was obtained by adding 10 µL of SeC solution into 10 µL of blank plasma or 5% BSA solution. To extract the parent SeC from the prepared spiked matrix (20 µL), 50 µL of ACN were added followed by rigorous vortexing. The mixture was centrifuged (30,000 g, 10 min) to obtain the extract. Two µL of the extract were injected into the liquid chromatography-mass spectrometry (LC-MS, Thermo TSQ Quantum Ultra) analyzer. Details about LC conditions (column, mobile phase and flow rate) and MS parameters were listed in Supplementary Table 1.
To clarify the role of albumin thiols, 10 µL of 5% BSA solution were pre-incubated with NEM (10 µL, 0.4 M in DMA) for 10 min before being mixed with SeC solution (10 µL). Again, 50 µL of ACN were used for extraction and 2 µL of the extract were injected into LC-MS for analysis.

[2] = biological target: human serum albumin (Homo sapiens, UniProt P02768); assay: XAS linear combination fitting of SeC-human plasma mixture (SeC-HP); settings: XANES linear combination fitting, total SeC 20 µg/ml; for SeC-HSA (%): albumin-bound share in SeC-human plasma mixture; for SeC (%): free SeC share in SeC-human plasma mixture
Chain of human serum albumin (P02768 25-609): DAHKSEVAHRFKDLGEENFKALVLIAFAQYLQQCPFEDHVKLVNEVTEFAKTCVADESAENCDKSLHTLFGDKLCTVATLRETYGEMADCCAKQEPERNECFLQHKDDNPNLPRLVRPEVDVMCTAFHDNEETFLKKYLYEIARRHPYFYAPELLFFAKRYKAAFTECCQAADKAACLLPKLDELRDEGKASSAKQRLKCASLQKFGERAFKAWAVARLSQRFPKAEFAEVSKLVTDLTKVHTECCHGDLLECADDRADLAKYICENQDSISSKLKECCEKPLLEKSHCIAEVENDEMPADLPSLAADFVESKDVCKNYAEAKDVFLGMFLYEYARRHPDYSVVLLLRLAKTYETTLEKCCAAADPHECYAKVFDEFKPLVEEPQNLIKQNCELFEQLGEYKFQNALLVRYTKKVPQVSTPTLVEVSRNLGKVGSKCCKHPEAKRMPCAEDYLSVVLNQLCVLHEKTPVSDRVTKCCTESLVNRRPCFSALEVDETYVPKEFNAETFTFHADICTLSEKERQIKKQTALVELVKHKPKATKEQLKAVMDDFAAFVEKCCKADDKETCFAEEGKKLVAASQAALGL
Method: SeC solution (40 µL; 2 mg/mL) was mixed with HSA (50 mg/mL in H2O; […]) and kept at room temperature for 30 min. The crude material was separated on a Superdex 200 Increase 10/300 GL column (GE Healthcare). The mobile phase consisted of ACN/H2O (5/95; v/v) at a flow rate of 0.75 mL/min. A total of 40 fractions (1 ml per fraction) approximately were collected, pooled and lyophilized (selenol-human serum albumin conjugate; SeC-HSA).
The mixture of SeC and human plasma (SeC-HP) was prepared. Generally, SeC solution (20 µL; 2 mg/mL) was mixed with 2 mL human plasma, kept at room temperature for 10 min and lyophilized. Selenium K-edge XAS measurements were performed in QEXAFS mode using a Si(311) double-crystal monochromator in CLAESS beamline at ALBA synchrotron light facility (Barcelona, Spain). Self-supported 5 mm pellets of SeC-HSA or SeC-HP (~20 mg) were measured in fluorescence mode using a 5 elements Silicon drift detector. For the reference compounds, the appropriate amount of pure SeC was mixed with cellulose to form pellets with an optimum absorption jump in transmission mode. Transmission was measured with ionization chambers filled with appropriate mixtures of N2 and Kr gases. To avoid radiation damage, all measurements were performed at liquid N2 temperature using the cryostat available at the beamline. Data analysis was performed using Demeter software package (version 0.9.26)[23].
In order to confirm the albumin binding, SeC was firstly allowed to react with HSA. The crude material was then separated by size exclusion chromatography and the eluent corresponding to […] was collected and lyophilized (SeC-HSA). SeC-HSA was subsequently subjected to XAS measurement and compared to the SeC itself. […] In addition, since the XAS spectra of mixtures can be expressed as an additive combination of its constituents, a linear combination fitting analysis using the reference spectra of SeC-HSA and SeC was carried out to assess the amount of each form in the mixture of SeC and human plasma (SeC-HP).
27 Supplementary Table 3. Linear combination fitting results of X-ray absorption near
28 edge spectra. The fitting was performed over the spectra for selenocompound-human plasma
29 mixture between -20 and 50 eV keeping E0 fixed and equal to 0 eV.

[3] = Stability of selenocompound in plasma and selenol derivative in processed sample (RECID); assay type: in vitro ADME, human
Method: 48 Supplementary Table 7. Stability of selenocompound in plasma and selenol derivative in
49 processed sample. SeC-spiked plasma was treated as indicated and then analyzed using
50 RECID. SeC-NEM in processed sample was treated in the same way and then subjected to
51 LC-MS analysis. Stability was shown as the percentage of the peak area after indicated
52 treatment to that from base line value. SeC concentrations were 20 µg/mL. Results are shown
53 as the mean ± SD of three technical replicates.
SeC Sample Type Treatment
RT/24 hr 4 °C/24 hr -20 °C/24 hr Freeze-Thaw/5 Cycles

[4] = system: C1498 cells; assay: Cytotoxicity of SeC (CellTiter-Glo); settings: C1498 leukemic cells, 24 hr, within the concentration range tested
Method: C1498 cells were cultured in DMEM supplemented with FBS (10%, v/v), penicillin (100 unit/mL) and streptomycin (100 µg/mL). Cells under the exponential growth phase were used for the cytotoxicity study. […] The stock solutions were diluted with cell culture medium till target concentration range. Briefly, 350 µL of cell suspension (0.2 × 10^6 cells/mL) were mixed with equal volume of SeC solution. The mixture was aliquoted to 96-well plate (100 µL per well) and incubated for 24 hours. Cell viability was determined using CellTiter-Glo kit (Promega, G7571). Cells treated with the appropriate solvent were used as the control. Cell survival rate was calculated as the percentage of […] in SeC-treated cells/control group.

[5] = biological target: T1, BSA; assay: Albumin binding degree by ultrafiltration; assay type: in vitro ADME, bovine; parameters: purchased Thermo Fisher; settings: 5% albumin solution, SeC 20 µg/mL
Method: Two hundred µL of SeC solution were mixed with equal volume of H2O (control) or 5% BSA solution (final SeC concentration being 20 µg/mL). The mixture was transferred into an ultrafiltration tube (cut off 10 kDa, Sigma-Aldrich, 13239E) and centrifuged (2000 g and 5 min) to obtain the ultra-filtrate. Twenty µL of the ultra-filtrate were mixed with 50 µL of ACN and analyzed for SeC in parent form. Albumin binding degree was calculated as the percentage of SeC peak area in BSA solution in relative to that in H2O.

[6] = Pharmacokinetic study in mouse; settings: for clearance / half-life: C57BL/6 albino, iv
Method: Blank plasma (10 µL) was spiked with 5 µL of SeC solution. NEM (10 µL, 0.4 M in DMA) and TCEP (5 µL, 0.2 M in H2O) were successively added to the spiked plasma. The mixture was vortexed for 30 sec and left for 10 min at room temperature before deproteinization using 50 µL of ACN. Two µL of processed sample were injected for LC-MS analysis (LC-MS parameters listed in Supplementary Table 2).
All animal experiments were approved by the Stockholm Southern Ethical Committee and performed in accordance with Swedish Animal Welfare Law (ethical permit no. ID 1031). CysSe2 (0.7 mg/mL) or MeSeA (1 mg/mL) was prepared in DPBS and the pH was adjusted to around 7.4. Ebselen or p-XSC was first dissolved in DMSO/Cremophor EL (1:1, v/v) at 5 mg/mL and then diluted with DPBS till 0.5 mg/mL. CysSe2 or MeSeA was injected into C57BL/6 albino mouse via the tail vein at a dose of 5 mg/kg; while the dose for ebselen and p-XSC was 2 mg/kg. Approximately 50 µL of blood were collected from the facial vein at different time points into EDTA-coated vials. SeC concentration in plasma was analyzed as described under section “Analysis of SeC using RECID”. The detected concentrations were fitted to a bolus injection in a one-compartment open model and the pharmacokinetic parameters were calculated using WinNonLin software (version 2.0).

[7] = 5% BSA (pristine albumin) after deproteinization, SeC 20 µg/mL
[8] = NEM pretreated-BSA (albumin thiols blocked) after deproteinization, SeC 20 µg/mL
[9] = Spiked Plasma, 4 °C/24 hr, SeC 20 µg/mL
[10] = Spiked Plasma, -20 °C/24 hr, SeC 20 µg/mL
[11] = Spiked Plasma, Freeze-Thaw/5 Cycles, SeC 20 µg/mL
[12] = Spiked Plasma, RT/24 hr, SeC 20 µg/mL

T1 sequence (P02769 25-607): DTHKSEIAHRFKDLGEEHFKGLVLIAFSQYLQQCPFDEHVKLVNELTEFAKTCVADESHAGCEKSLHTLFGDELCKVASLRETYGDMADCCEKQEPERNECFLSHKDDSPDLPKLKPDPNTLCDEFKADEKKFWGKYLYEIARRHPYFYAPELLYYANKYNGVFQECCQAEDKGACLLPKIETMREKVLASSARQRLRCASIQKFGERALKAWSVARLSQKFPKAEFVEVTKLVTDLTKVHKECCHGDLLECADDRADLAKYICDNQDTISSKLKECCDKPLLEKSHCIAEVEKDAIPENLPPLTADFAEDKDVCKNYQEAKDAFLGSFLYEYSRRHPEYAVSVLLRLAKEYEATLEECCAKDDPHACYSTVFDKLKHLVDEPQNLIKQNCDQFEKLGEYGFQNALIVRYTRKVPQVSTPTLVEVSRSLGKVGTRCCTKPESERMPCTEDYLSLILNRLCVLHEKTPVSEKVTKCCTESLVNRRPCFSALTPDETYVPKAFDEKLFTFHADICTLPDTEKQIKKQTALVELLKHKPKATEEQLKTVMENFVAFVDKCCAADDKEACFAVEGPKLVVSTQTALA

SMILES	Extraction efficiency [1, 7]	Extraction efficiency [1, 8] [%]	SeC-HSA (%) [2] [%]	SeC (%) [2] [%]	Stability (peak area vs base line) [3, 9] [%]	Stability (peak area vs base line) [3, 10] [%]	Stability (peak area vs base line) [3, 11] [%]	Stability (peak area vs base line) [3, 12] [%]	Cytotoxicity [4]	Albumin binding degree [5]	clearance ([6]; plasma) [mL/min]	half-life ([6]; plasma) [min]	other results
C[Se](=O)O [MeSeA, methylseleninic acid]	0%	94.8	100.0	0	108.9 ± 4.8	116.0 ± 3.2	117.3 ± 0.5	110.9 ± 2.0	showed cytotoxicity	52–100%	–	–	Stability (peak area vs base line) ([3]; Processed sample (SeC-NEM derivative), 4 °C/24 hr): 106.7 ± 0.5%; Stability (peak area vs base line) ([3]; Processed sample (SeC-NEM derivative), -20 °C/24 hr): 103.2 ± 1.0%; Stability (peak area vs base line) ([3]; Processed sample (SeC-NEM derivative), Freeze-Thaw/5 Cycles): 104.3 ± 0.4%; Stability (peak area vs base line) ([3]; Processed sample (SeC-NEM derivative), RT/24 hr): 114.3 ± 0.3%
C[Se]C[C@H](N)C(=O)O [MeSeCys, methylselenocysteine]	–	–	–	–	–	–	–	–	no cytotoxic effect	< 3%	–	–	Extraction efficiency ([1]; bovine, 20 µg/mL): over 95%
NC(C[Se][Se]CC(N)C(=O)O)C(=O)O (stereo not shown) [CysSe2, Selenocystine]	21.4%	79.6	80.4	19.6	100.9 ± 7.9	99.6 ± 6.4	102.2 ± 0.6	98.6 ± 7.1	showed cytotoxicity	52–100%	0.642	8.4 ± 1.2	Total exposure compared to that of ebselen ([6]; intravenous, CysSe2 5 mg/kg vs ebselen 2 mg/kg): around 72%; Exposure adjusted for dose, relative to ebselen ([6]; intravenous, dose-adjusted): less than one third
O=c1c2ccccc2[se]n1-c1ccccc1 [Ebselen]	9.3%	90.7	91.5	8.5	113.1 ± 0.5	108.2 ± 3.2	97.2 ± 2.7	110.3 ± 1.8	showed cytotoxicity	52–100%	0.177	13.2 ± 2.4	–
N#C[Se]Cc1ccc(C[Se]C#N)cc1 [p-XSC, p-xyleneselenocyanate]	–	–	100.0	0	–	–	–	–	showed cytotoxicity	52–100%	–	–	clearance ([6]; in vivo): 0.0967 mL/min; half-life ([6]; in vivo): 30.6 ± 7.2 min
C[Se]CC[C@H](N)C(=O)O [SeMet, Selenomethionine]	over 95%	–	–	–	–	–	–	–	no cytotoxic effect	< 3%	–	–	–
